Source: ChEMBL document CHEMBL1201862, “PubChem BioAssay data set” (2004)
The source made the active and inactive calls.

How the values were obtained:
Vero [1] = test: cells; type: functional, cell-based; settings: Chlorocebus sabaeus
[2] = C. albicans growth with fluconazole, confirmation, fluorescence, retest (AID 2467); type: functional, cell-based
Vero [3] = test: cells; type: functional; settings: Chlorocebus sabaeus
[4] = human group III sPLA2 inhibitors, dose response, biochemical, QFRET, IC50 (AID 743457);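 note: green fluorescence rise as the enzyme cleaves BODIPY PC-A2 in liposomes; potency for inhibition of the enzyme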
NS3 = NS3 (Hepatitis C virus, UniProt A3EZJ3); test: PubChem AID 2173; parameters: species or system Hepacivirus hominis
Sequence of NS3 (A3EZJ3 whole entry): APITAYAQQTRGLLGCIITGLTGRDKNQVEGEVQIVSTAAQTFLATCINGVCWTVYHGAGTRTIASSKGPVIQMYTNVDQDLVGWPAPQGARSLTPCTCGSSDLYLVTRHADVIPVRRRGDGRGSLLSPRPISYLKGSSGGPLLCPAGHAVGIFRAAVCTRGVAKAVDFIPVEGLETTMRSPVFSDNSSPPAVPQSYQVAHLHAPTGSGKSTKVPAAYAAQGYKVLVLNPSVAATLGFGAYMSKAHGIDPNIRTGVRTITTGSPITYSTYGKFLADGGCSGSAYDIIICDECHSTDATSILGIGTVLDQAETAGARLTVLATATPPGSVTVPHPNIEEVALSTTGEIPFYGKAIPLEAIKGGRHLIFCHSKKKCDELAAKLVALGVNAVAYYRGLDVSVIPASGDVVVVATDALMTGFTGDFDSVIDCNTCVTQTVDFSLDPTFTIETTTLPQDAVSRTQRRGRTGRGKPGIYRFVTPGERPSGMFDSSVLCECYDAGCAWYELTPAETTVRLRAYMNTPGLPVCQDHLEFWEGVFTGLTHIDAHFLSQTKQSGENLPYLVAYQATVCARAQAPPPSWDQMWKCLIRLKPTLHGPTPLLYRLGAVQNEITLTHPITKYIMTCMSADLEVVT

[5] = NIH-3T3 fibroblast cytotoxicity, dose response, cytotoxicity control, cell-based, fluorescence, Alamar Blue, secondary assay (AID 2327); type: functional;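 note: NIH-3T3 mouse fibroblasts cultured with fluconazole at 8 µg/mL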
Beta-galactosidase = Beta-galactosidase (Escherichia coli, UniProt Q8VNN2); test: Dose response counterscreen for EBI2 assay utilizing the enzyme, b-galactosidase.; type: functional
Sequence of Beta-galactosidase (Q8VNN2 whole entry): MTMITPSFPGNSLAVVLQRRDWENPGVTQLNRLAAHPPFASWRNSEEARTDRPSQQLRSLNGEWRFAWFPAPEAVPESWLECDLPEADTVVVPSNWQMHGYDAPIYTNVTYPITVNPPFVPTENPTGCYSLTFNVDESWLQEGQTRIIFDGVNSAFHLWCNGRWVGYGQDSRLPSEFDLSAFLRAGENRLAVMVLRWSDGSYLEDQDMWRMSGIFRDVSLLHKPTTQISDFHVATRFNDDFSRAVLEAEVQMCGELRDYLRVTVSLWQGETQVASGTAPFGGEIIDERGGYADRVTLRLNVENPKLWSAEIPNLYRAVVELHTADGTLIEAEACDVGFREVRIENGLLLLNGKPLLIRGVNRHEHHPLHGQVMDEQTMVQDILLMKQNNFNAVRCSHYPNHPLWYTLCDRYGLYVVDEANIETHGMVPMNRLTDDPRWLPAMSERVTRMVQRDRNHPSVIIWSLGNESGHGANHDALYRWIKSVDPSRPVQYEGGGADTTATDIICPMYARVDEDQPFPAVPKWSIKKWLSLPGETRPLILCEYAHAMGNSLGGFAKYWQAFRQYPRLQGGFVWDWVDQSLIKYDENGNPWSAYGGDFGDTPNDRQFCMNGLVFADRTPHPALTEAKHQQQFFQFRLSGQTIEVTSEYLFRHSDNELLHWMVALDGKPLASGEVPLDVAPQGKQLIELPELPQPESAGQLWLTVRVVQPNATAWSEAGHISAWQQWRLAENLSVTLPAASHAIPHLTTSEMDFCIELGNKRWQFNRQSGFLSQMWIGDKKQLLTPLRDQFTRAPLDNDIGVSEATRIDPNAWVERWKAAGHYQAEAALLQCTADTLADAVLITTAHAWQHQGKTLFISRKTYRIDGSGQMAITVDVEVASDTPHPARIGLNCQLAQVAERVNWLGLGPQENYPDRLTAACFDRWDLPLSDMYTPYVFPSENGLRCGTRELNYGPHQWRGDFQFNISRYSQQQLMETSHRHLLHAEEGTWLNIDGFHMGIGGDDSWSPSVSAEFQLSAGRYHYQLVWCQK

[6] = Glucagon-like peptide 1 release potency, NCI-H716 cell line, dose-response, half-maximal inhibitory concentration (AID 1117344); type: functional, cell-based
[7] = Dose-response inhibition of insulin secretion in a rat insulinoma line at 5 mM glucose (AID 1117331); type: functional, cell-based; settings: INS-1E
[8] = half-maximal inhibitory concentration for glucagon-like peptide-1 release, STC-1 cell line, dose-response (AID 1117345); type: functional, cell-based
[9] = IGROV1 ovarian cancer cell cytotoxicity, dose response, PAX8 inhibitor project, plate reader, dry powder samples (AID 743043); type: functional, cell-based; settings: IGROV-1
[10] = A2780 ovarian cancer cell cytotoxicity, dose response, cytotoxicity control, plate reader, dry powder samples (AID 743046); type: functional, cell-based
[11] = cytotoxicity in OVCAR8 ovarian cancer cells, dose response, PAX8 project, cell-based, plate reader, dry powder samples (AID 743197); type: functional; settings: OVCAR-8
[12] = NIH:OVCAR-3 ovarian cancer cell cytotoxicity, dose response, PAX8 inhibitor project, plate reader, dry powder samples (AID 743044); type: functional, cell-based
[13] = inhibitors of PGC1a acetylation in cells, dose response, cell-based, cherry-picked samples (AID 720514); type: functional;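 note: potency may reflect raised or lowered acetylation signal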
[14] = target: T1, Apoptotic protease-activating factor 1 (Homo sapiens, UniProt O14727); type: functional
T1 sequence (O14727 whole entry): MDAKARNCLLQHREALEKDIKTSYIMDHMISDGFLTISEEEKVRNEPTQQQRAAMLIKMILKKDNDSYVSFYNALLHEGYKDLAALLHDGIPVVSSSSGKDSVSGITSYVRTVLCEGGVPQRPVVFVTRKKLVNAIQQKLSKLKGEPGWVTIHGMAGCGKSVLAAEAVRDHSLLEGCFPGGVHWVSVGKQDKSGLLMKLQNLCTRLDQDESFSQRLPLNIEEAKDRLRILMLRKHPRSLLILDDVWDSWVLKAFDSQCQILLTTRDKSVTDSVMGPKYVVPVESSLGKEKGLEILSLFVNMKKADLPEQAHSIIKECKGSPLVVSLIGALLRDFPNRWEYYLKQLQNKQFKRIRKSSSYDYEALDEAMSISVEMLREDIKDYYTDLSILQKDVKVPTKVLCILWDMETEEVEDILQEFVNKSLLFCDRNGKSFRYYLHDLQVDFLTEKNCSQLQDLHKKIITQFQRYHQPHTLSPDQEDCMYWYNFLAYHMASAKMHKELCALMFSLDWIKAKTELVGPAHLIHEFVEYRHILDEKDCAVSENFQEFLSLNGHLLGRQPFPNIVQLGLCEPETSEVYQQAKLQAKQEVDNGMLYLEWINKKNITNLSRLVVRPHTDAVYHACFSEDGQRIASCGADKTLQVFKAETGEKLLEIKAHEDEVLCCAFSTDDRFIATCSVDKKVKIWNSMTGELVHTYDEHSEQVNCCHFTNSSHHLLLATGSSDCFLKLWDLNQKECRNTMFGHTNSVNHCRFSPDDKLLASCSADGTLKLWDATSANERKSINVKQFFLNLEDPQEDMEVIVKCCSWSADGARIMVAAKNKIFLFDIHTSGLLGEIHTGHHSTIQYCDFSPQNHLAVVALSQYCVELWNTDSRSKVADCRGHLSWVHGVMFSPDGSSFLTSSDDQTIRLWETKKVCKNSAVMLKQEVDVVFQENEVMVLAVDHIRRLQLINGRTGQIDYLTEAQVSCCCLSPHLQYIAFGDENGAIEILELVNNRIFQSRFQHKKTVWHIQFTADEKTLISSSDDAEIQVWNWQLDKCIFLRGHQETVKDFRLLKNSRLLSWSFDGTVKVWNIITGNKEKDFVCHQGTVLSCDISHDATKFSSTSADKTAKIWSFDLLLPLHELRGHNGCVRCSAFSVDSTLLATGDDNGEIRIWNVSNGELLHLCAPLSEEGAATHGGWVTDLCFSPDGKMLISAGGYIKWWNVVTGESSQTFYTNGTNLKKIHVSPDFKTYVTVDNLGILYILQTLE

[15] = target: T2, Sentrin-specific protease 8 (Homo sapiens, UniProt Q96LD8); type: functional
T2 sequence (Q96LD8 whole entry): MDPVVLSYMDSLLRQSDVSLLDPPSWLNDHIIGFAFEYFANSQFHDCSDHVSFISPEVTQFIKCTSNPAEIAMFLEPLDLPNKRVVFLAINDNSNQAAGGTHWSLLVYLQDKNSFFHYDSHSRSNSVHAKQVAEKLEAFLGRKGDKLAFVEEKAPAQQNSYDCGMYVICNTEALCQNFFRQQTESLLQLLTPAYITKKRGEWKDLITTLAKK

[16] = target: T3, Probable nicotinate-nucleotide adenylyltransferase (Staphylococcus aureus (strain N315), UniProt P65502); type: functional, Staphylococcus aureus subsp. aureus N315; settings: read-out: IC50_Mean;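 for IC50 Mean: confirmatory dose-response retesting of NadD inhibitor hits first found in an ultra-high-throughput screen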
T3 sequence (P65502 whole entry): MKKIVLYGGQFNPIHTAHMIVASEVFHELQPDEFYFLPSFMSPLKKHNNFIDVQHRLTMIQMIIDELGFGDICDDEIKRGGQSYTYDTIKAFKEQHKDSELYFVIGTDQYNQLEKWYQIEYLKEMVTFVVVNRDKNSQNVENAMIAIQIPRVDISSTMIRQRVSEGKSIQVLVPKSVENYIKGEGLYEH

[17] = target: T3, Probable nicotinate-nucleotide adenylyltransferase; type: functional, Staphylococcus aureus subsp. aureus N315
[18] = target: T4, Lysine-specific demethylase 4C (Homo sapiens, UniProt Q9H3R0); test: GASC-1 (JMJD2C) histone demethylase inhibitors, dose response, biochemical, DELFIA europium, cherry-picked samples (AID 488835); type: functional
T4 sequence (Q9H3R0 whole entry): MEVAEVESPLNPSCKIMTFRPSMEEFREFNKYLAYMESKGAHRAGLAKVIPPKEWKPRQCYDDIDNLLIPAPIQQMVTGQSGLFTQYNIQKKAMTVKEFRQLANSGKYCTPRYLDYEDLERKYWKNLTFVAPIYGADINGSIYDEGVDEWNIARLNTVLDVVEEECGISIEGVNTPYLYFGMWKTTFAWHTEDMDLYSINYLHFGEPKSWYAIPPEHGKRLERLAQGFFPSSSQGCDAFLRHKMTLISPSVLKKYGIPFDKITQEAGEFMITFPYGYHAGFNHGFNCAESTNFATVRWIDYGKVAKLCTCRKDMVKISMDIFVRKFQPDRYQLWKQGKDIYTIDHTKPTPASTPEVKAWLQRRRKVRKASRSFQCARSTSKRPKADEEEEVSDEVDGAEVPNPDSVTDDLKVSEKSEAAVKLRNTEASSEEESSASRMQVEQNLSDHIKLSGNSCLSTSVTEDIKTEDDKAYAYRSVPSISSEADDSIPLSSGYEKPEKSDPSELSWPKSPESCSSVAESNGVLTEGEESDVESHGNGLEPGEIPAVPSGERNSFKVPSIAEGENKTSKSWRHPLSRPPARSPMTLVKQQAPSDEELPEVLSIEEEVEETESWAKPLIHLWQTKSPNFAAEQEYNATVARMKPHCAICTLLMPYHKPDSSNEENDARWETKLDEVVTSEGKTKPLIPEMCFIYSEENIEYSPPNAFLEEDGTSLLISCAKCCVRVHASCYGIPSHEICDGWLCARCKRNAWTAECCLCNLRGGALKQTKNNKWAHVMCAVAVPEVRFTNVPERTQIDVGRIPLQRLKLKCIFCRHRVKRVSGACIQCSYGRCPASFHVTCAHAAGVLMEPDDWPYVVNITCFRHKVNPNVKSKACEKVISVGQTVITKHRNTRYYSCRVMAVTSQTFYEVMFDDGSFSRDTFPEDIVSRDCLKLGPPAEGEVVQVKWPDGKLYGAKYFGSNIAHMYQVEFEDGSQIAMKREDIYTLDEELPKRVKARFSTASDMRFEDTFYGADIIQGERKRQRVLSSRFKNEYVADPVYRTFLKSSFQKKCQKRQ

[19] = target: T2, Sentrin-specific protease 8; type: functional; remark: listed apart in the source
INS1 = test: beta cell apoptosis inhibitors, cytokine rescue, dose response, luminescence, retest (AID 449756); type: functional, cell-based; settings: Rattus norvegicus;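 note: cell death triggered by IL-1 beta plus TNF-alpha plus IFN-gamma mixture; protective hits raise ATP signal compared with cytokine alone wells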
Kallikrein-7 = Kallikrein-7 (Homo sapiens, UniProt P49862); test: Fluorescence Intensity-based biochemical primary high throughput dose response assay to identify activators of kallikrein-7 (K7) zymogen.
Sequence of Kallikrein-7 (P49862 whole entry): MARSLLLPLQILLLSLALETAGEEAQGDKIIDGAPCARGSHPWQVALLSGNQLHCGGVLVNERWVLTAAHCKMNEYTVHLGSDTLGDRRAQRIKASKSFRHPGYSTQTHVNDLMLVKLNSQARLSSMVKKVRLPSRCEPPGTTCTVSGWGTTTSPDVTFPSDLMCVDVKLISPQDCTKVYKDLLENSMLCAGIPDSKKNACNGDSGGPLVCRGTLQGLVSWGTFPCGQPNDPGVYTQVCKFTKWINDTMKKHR

Paired box protein Pax-8 = Paired box protein Pax-8 (Homo sapiens, UniProt Q06710); test: inhibitors of PAX8-driven TPO luciferase reporter, dose response, RMG-I cells, cherry-pick (AID 687027); type: functional, cell-based;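 note: luciferase reporter driven by Pax8 target thyroperoxidase promoter measured by SteadyGlo luminescence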
Sequence of Paired box protein Pax-8 (Q06710 whole entry): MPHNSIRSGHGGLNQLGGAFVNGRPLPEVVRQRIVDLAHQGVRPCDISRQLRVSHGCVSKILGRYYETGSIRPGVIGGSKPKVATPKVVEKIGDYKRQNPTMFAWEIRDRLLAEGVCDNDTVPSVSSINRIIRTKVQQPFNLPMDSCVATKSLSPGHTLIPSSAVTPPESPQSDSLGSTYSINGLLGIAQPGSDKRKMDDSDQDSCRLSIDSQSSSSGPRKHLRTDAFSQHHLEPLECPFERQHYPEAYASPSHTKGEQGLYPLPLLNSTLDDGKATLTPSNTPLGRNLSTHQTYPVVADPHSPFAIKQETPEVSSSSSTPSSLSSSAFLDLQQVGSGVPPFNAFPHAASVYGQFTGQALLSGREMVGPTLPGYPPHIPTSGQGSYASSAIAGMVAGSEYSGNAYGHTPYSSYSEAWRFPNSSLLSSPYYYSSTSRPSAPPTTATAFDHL

[20] = non-specific cell cytotoxicity, dose response, cytotoxicity control for PAX8 inhibitor project, plate reader, dry powder samples (AID 743021); type: functional, cell-based
[21] = target: Oxysterols receptor LXR-beta (Homo sapiens, UniProt P55055); type: functional, cell-based;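 note: agonist activity at LXR measured by a cell-based luminescence readout across a dose range, run as a counterscreen for daf-12 agonists; HEK293 cells with Gal4-LXR fusion and GAL4-driven luciferase reporter; potency for activation of Gal4-LXR reporter so compounds are agonists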
Sequence of Oxysterols receptor LXR-beta (P55055 whole entry, the tested form may be a part): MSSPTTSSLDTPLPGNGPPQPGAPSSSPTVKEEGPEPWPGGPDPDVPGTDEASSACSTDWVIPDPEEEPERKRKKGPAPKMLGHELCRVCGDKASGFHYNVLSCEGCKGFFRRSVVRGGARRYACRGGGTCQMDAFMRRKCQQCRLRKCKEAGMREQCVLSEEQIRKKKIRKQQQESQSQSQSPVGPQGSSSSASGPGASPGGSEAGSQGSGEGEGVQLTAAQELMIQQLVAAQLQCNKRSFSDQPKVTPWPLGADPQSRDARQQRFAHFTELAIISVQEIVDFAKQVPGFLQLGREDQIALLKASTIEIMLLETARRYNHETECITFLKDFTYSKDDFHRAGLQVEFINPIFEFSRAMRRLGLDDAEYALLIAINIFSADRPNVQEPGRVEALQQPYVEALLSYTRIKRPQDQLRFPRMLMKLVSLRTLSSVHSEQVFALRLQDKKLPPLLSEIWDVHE

[22] = target: COUP transcription factor 2 (Homo sapiens, UniProt P24468); test: Luminescence-based cell-based high throughput dose response assay to identify inhibitors of COUP-TFII (NR2F2).; type: functional;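 note: HEK293 cells transiently cotransfected with COUP-TFII expression vector and reporter; luciferase reporter luminescence driven by COUP-TFII from the pX2-168 reporter plasmid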
Sequence of COUP transcription factor 2 (P24468 whole entry): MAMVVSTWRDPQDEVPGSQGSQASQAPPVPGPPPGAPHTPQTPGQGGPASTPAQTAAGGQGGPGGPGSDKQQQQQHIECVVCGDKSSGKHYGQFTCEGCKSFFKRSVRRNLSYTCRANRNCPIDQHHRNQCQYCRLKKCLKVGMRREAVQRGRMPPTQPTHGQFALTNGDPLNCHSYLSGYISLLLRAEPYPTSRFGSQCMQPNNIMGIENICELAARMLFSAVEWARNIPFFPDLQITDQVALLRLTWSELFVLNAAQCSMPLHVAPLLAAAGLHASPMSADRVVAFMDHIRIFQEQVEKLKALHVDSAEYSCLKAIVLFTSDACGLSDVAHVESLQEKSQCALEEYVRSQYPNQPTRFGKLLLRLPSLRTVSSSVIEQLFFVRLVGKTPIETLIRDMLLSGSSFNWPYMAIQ

[23] = Artemis endonuclease inhibitor potency, dose response, biochemical, fluorescence intensity (AID 720701); type: functional;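 note: Artemis endonuclease enzyme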
Vero [24] = test: Vero cell cytotoxicity, cytotoxicity control for flavivirus capping enzyme inhibitors (AID 588742); type: functional; settings: Chlorocebus sabaeus
[25] = HEK293 Cytotoxicity Assay Measured in Cell-Based System Using Plate Reader - 7071-01_Inhibitor_Dose_CherryPick_Activity_Set2.; type: functional
HEK293 = test: HEK293T cell cytotoxicity, dose response, cytotoxicity control, ATP luminescence, cherry-pick samples (AID 687005); type: functional, cell-based; settings: Homo sapiens;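 note: cells exposed to compound for 48 hours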
[26] = IOSE-T80 ovarian epithelial cell cytotoxicity, dose response, cytotoxicity control for PAX8 inhibitor project, plate reader, dry powder samples (AID 743045); type: functional, cell-based

CCCCOc1ccccc1C(=O)NNC(=S)NC(=O)c1ccccc1[N+](=O)[O-]
IC50 (Vero [1]): > 12.5 µM (active) | EC50 [2]: > 38 µM (not active) | CC50 (Vero [3]): 15.8 µM (active) | IC50 [4]: 20.8 µM (inactive) | IC50 (NS3): 12.2 µM (not active) | EC50 [5]: > 150 µM (inactive)

COc1ccc(OCC(=O)N2CCN(C/C=C/c3ccccc3)CC2)cc1
IC50 (Beta-galactosidase): > 80 µM (inactive)

Cc1c(N)cccc1C(F)(F)F
IC50 [6]: > 40 µM (inactive) | IC50 [7]: > 33.3 µM (inactive) | IC50 [8]: > 40 µM (inactive)

Fc1cccc(CN2C[C@@H]3N[C@H](C2)[C@@H]3c2ccc(-c3ccccc3)cc2)c1
AC50 [9]: 27.7 µM (active) | AC50 [10]: 15.1 µM (active) | AC50 [11]: 39.9 µM (active) | AC50 [12]: 31 µM (active) | AC50 [13]: 7.52 µM (active)

Cc1[nH][nH]c(=O)c1C(c1c(C)[nH][nH]c1=O)c1cn(Cc2cccc3ccccc23)c2ccccc12
IC50 [14]: 19.3 µM (active) | IC50 [15]: 5.32 µM (active) | IC50 [16]: 14.7 µM (active) | IC50 [17]: 6.89 µM (active) | AC50 [18]: 11.4 µM (active) | IC50 [19]: 3.36 µM (active)

Cc1cc(OCC(=O)N(C)Cc2ccccc2)ccc1Cl
AC50 (INS1): > 260 µM (inactive) | IC50 (Beta-galactosidase): > 80 µM (inactive)

COc1cc(/C=N/NC(=O)c2c(C)nc3ccc(Cl)cn23)cc(OC)c1OC
EC50 (Kallikrein-7): 29 µM (inactive)

O=C(Nc1ccc(C(F)(F)F)cc1)N1C[C@@H]2N[C@H](C1)[C@@H]2c1ccc(-c2ccccc2)cc1
AC50 (Paired box protein Pax-8): 8.62 µM (active) | AC50 [20]: 33.8 µM (active) | AC50 [13]: 9.06 µM (active)

OC(c1ccccc1)c1nc(-c2cnc3ccccc3c2)cs1 (configuration not stated)
EC50 [21]: > 67.6 µM (inactive)

COc1ccc(NC(=O)C2Cc3c(-c4ccc5c(c4)OCO5)ccnc3O2)cc1OC (configuration not stated)
IC50 [22]: 8.73 µM (active)

Cc1n[nH]c(O)c1C(c1c(C)n[nH]c1O)c1cn(Cc2cccc3ccccc23)c2ccccc12
IC50 [23]: 12.5 µM (active) | CC50 (Vero [24]): > 40 µM (active)

CSc1ccc(C2NC(=O)c3ccccc3N2)cc1 (configuration not stated)
EC50 (Kallikrein-7): > 69.5 µM (inactive)

CC/N=c1\scc(-c2ccc3c(c2)NC(=O)CO3)n1N=C1CCCC1
IC50 [22]: 8.75 µM (active) | EC50 [2]: 2.31 µM (active) | EC50 [5]: > 160 µM (inactive)

Cc1ccc(S(=O)(=O)N(C)C[C@@H]2Oc3ccc(NS(=O)(=O)c4ccc(Cl)cc4)cc3CC(=O)N([C@@H](C)CO)C[C@@H]2C)cc1
AC50 [25]: 28 µM (active) | AC50 (HEK293): 28 µM (active)

CC(C)CC#Cc1ccc2c(c1)O[C@@H](CN(C)Cc1ccncc1)[C@H](C)CN([C@H](C)CO)S2(=O)=O
AC50 [26]: 48.9 µM (active) | AC50 (Paired box protein Pax-8): 4.41 µM (active) | AC50 [11]: 32.6 µM (active) | AC50 [12]: 40.7 µM (active)

O=C(CSCc1ccccc1)NNC(=S)Nc1cccc(Cl)c1Cl
IC50 [4]: > 122 µM (inactive)
